From publication PMC8779255, “Determining the Anticancer Activity of Sphingosine Kinase Inhibitors Containing Heteroatoms in Their Tail Structure” (Pharmaceutics, 2022)

What was measured:
[1] = biological target: T1, SK1 enzyme (Homo sapiens, UniProt Q9NYA1); assay: SK activity assay (Adapta screening system); type: biochemical; details: 20 μM, Figure 5A
T1 construct: purchased Thermo Fisher Scientific
Protocol: (§1) The effect of compounds in sphingosine kinase activity was examined using the […] screening system (Thermo Fisher Scientific System, Waltham, MA, USA). The kinase inhibition ability of compounds 1-11 along with RB005 was measured with final concentration of 20 μM. […] The data were presented as percentage inhibition of SK enzyme by individual compounds.

[2] = biological target: T2, SK2 enzyme (Homo sapiens, UniProt Q9NRA0); assay: SK activity assay (Adapta screening system); type: biochemical; details: 20 μM, Figure 5A
T2 construct: purchased Thermo Fisher Scientific
T2 sequence (Q9NRA0 whole entry): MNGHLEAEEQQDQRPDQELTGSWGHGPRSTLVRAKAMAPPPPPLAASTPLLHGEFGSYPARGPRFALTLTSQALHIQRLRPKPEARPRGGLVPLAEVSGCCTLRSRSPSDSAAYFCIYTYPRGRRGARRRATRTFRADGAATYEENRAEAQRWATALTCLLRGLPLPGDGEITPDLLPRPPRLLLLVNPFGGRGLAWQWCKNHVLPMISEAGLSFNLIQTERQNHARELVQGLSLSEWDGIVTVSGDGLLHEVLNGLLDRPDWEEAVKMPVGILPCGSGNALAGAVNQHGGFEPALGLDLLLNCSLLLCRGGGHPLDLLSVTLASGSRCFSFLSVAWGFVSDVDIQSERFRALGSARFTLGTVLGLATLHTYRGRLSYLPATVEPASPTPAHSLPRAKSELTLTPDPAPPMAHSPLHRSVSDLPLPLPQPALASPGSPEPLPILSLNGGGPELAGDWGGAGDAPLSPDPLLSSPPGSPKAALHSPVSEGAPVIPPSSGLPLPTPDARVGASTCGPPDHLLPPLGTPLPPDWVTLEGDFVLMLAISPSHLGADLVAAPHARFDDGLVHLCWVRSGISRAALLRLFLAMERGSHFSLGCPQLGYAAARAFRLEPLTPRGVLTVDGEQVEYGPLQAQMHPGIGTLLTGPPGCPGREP
Protocol: as §1

[3] = system: HCT116 cells; assay: MTT cell viability assay; type: cell-based, human
Protocol: (§2) The HT29 and HCT116 cells (human colon cancer), AGS (human gastric cancer), and MIA PaCa-2 cells (human pancreatic cancer) were purchased from Korean Cell Line Bank (Seoul, Korea). Cancer cells were maintained in RPMI (HT29 and AGS) and DMEM (HCT116 and MIA PaCa-2) culture media supplemented with 10% fetal bovine serum (FBS) and 100 U/mL penicillin and streptomycin at 37 °C in a 95% humidified incubator containing 5% CO2. The cytotoxic effect of the compounds was assessed using the MTT cell viability assay. Briefly, 3 × 10^3 cells/well were grown in 96-well plates for 24 h. After treatment with desired concentration of respective compounds for 24 h or 48 h, the EZ-CYTOTOX (10 µM) reagent was added in each well and incubated for 90 min. The absorbance was measured at 450 nm wavelength using Skanlt software 5.0 (Thermo Scientific, Waltham, MA, USA) installed on a Multiskan GO (Thermo Scientific, Waltham, MA, USA) spectrophotometer. Each experiment was independently repeated three times (n = 12).

[4] = system: HT29 cells; assay: MTT cell viability assay; type: cell-based, human
Protocol: as §2

[5] = system: S1PR4; design: method as in PMID 27297359; details: in Figure 1, no unit; cited from earlier work
[6] = system: S1PR5; design: method as in PMID 27297359; details: in Figure 1, no unit; cited from earlier work
[7] = system: S1PR3; design: method as in PMID 27297359; details: in Figure 1, no unit; cited from earlier work
[8] = system: S1PR1; design: method as in PMID 27297359; details: in Figure 1, no unit; cited from earlier work
[9] = system: S1PR2; design: method as in PMID 27297359; details: in Figure 1, no unit; cited from earlier work
[10] = biological target: CYP2C9 (Homo sapiens, UniProt P11712); assay: Inhibition of CYP enzymes activity, human liver microsomes; details: human liver microsomes 0.25 mg/mL, 10 μM, diclofenac substrate
CYP2C9, sequence (P11712 whole entry): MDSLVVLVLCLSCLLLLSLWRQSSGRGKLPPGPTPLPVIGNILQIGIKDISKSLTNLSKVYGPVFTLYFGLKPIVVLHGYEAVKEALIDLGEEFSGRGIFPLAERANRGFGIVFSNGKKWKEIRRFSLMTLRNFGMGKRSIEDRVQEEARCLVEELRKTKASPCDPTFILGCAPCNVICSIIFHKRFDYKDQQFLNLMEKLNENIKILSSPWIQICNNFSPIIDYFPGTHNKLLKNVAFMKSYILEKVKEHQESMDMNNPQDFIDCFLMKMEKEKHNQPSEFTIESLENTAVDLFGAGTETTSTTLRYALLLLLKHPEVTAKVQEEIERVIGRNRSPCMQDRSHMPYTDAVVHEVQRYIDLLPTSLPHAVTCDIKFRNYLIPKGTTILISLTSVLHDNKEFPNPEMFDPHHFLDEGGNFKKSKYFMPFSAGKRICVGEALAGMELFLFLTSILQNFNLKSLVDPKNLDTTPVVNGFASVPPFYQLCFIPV
Protocol: (§3) By simultaneously analyzing metabolites, the ability of the six compounds to inhibit drug metabolism enzymes was evaluated.
(§4) Metabolites of each CYP coenzyme indicator drug generated through the above reaction were analyzed using the Shimadzu Nexera XR system and TSQ vantage (Thermo). The HPLC column was a Kinetex C18 column (2.1 × 100 mm^2, 2.6 μm particle size; Phenomenex, Torrance, CA, USA), and the mobile phase was distilled water (A) containing 0.1% formic acid and acetonitrile (B) containing 0.1% formic acid. […] The generated metabolites were quantified using MRM (Multiple Reaction Monitoring) quantification modes, and data were analyzed using Xcalibur (version 1.6.1).

[11] = biological target: CYP2D6 (Homo sapiens, UniProt P10635); assay: as above; details: human liver microsomes 0.25 mg/mL, 10 μM, dextromethorphan substrate
CYP2D6, sequence (P10635 whole entry): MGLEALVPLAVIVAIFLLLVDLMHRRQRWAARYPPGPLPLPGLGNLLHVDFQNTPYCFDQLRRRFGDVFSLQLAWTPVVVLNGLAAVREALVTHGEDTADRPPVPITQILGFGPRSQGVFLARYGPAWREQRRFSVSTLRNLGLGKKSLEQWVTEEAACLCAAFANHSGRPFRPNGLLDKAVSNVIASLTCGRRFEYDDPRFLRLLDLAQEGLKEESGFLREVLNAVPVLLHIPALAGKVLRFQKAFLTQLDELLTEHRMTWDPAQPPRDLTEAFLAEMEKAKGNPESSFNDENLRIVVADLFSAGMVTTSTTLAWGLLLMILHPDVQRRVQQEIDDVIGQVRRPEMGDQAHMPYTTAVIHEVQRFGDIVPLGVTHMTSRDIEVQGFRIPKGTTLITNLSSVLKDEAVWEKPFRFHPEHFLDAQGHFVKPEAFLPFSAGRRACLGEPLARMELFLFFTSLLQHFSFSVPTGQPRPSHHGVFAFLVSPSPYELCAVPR
Protocol: (§5) Afterward, to terminate the reaction, an acetonitrile solution containing an internal standard (terfenadine) was added, centrifuged for 5 min (14,000 rpm, 4 °C), and the supernatant was injected into the LC-MS/MS system. By simultaneously analyzing metabolites, the ability of the six compounds to inhibit drug metabolism enzymes was evaluated.
as §4

[12] = biological target: T3, PP2A in HCT116 cells (Homo sapiens, UniProt P67775); assay: PP2A activity assay (immunoprecipitation kit); type: cell-based; details: HCT116, 24 h, 20 µM of compounds 10, 11 and 13; vs nontreated control cells
T3 construct: endogenous in cells; host or cells: HCT116
T3 sequence (P67775 whole entry): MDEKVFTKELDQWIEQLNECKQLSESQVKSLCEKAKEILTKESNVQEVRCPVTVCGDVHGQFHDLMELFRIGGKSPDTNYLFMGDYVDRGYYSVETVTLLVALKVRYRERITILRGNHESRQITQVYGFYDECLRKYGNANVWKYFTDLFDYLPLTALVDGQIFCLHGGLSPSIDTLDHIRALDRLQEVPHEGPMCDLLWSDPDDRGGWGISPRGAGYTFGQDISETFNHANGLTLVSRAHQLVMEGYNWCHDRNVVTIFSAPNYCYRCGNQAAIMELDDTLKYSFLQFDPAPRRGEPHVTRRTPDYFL
Protocol: The activity of PP2A was measured by using the PP2A kit according to the manufacturer’s instruction. The cell lysate was incubated with anti PP2A, C subunit antibody, and protein A agarose slurry for 2 h at 4 °C. The phosphopeptide solution (60 µL) was mixed and incubated at 30 °C for 10 min in a shaker. After a brief centrifuge, a 25 µL sample was liquated in ½ volume microplate and 100 µL malachite green phosphate detection working solution was added. After color development, absorbance was taken at 650 nm in a Multiskan GO microplate reader. A phosphate standard curve was constructed using phosphate standard, and results were calculated using this standard curve. This experiment was repeated three times (n = 6).

[13] = biological target: CYP2C19 (Homo sapiens, UniProt P33261); assay: Inhibition of CYP enzymes activity, human liver microsomes; details: human liver microsomes 0.25 mg/mL, 10 μM, S-mephenytoin substrate
CYP2C19, sequence (P33261 whole entry): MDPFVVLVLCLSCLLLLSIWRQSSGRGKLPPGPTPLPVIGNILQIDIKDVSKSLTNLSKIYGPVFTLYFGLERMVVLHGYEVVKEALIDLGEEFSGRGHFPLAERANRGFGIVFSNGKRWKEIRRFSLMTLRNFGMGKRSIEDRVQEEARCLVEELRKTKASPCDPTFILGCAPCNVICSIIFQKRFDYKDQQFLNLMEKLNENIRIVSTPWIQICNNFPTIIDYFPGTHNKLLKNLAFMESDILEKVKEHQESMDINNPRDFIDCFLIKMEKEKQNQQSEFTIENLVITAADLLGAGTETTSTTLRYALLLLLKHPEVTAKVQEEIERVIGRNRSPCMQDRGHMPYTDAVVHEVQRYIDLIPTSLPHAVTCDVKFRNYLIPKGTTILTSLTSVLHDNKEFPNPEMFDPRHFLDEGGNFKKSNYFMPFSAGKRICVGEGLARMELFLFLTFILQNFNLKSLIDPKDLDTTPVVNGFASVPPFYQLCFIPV
Protocol: as §3, §4

[14] = biological target: T4, CYP3A4 (Homo sapiens, UniProt P08684); assay: as above; type: in vitro ADME; details: human liver microsomes 0.25 mg/mL, 10 μM, midazolam substrate
T4 construct: Human liver microsomes (0.25 mg/mL); from tissue; host or cells: human liver microsomes
T4 sequence (P08684 whole entry): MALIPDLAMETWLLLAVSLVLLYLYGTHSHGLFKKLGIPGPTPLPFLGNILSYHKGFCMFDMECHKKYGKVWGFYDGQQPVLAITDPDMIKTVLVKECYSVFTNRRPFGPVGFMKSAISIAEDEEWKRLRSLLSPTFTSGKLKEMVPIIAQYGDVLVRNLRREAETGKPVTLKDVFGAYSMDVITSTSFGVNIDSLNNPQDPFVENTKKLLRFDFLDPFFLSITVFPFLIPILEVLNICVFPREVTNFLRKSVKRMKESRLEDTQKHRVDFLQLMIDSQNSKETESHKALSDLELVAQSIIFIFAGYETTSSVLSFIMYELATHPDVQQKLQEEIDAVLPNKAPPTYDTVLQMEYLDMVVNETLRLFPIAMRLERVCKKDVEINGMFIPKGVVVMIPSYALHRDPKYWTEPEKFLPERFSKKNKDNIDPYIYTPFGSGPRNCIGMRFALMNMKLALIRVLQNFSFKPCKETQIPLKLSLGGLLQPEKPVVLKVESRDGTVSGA
Protocol: as §3, §4

[15] = system: SK1; details: known compounds, Figure 1; cited from earlier work
[16] = In vitro metabolic stability in liver microsomes; type: in vitro ADME, mouse
[17] = system: SK2; details: known compounds, Figure 1; cited from earlier work
[18] = system: HT29 cells; assay: Annexin V-FITC/PI staining, flow cytometry; type: cell-based, human; details: HT29, 10 and/or 20 µM, 24 h
Protocol: After treating HT29 and HCT116 cells with compounds 10, 11, 13 and FTY720 according to the manufacturer’s instruction, the annexin V and PI staining technique was employed to determine apoptosis in the cells. Briefly, cells (2.5 × 10^5 cells/well) were seeded in 12-well plates and treated with 10 and/or 20 µM of compounds for 24 h. Cells were collected using trypsin-EDTA and stained with annexin V-FITC dye for 15 min at room temperature, followed by PI staining for 20 min and analyzed by flow cytometer (MACSQuant Analyzer 10; Miltenyi Biotec, Bergisch Gladbach, Germany). The data was analyzed using MACSQuantify^TM version 2.8 software (Miltenyi Biotec, Bergisch Gladbach, Germany) and presented as early apoptosis, late apoptosis, or combined apoptosis percentage. Each experiment was repeated three times independently (n = 6).

[19] = biological target: T5, CYP1A2 (Homo sapiens, UniProt P05177); assay: Inhibition of CYP enzymes activity, human liver microsomes; details: human liver microsomes 0.25 mg/mL, 10 μM, phenacetin substrate
T5 sequence (P05177 1-516): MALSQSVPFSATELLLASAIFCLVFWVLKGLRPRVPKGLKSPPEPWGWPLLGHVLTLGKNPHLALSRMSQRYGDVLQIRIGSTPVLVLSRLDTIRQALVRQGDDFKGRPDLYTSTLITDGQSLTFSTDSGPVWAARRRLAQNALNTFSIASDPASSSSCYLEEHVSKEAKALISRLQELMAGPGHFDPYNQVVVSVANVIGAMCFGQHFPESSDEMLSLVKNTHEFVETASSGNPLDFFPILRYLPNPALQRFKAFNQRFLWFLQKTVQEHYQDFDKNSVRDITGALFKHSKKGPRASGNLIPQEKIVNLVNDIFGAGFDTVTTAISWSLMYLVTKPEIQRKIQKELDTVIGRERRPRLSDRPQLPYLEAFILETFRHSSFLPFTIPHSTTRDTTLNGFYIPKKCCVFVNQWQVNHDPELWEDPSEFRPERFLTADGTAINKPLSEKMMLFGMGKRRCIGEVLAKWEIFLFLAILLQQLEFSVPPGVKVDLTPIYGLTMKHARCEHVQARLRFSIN
Protocol: as §5, §4

[20] = In vitro metabolic stability in liver microsomes
Protocol: Microsome incubation was measured in triplicate in a 1.5 mL Eppendorf tube with 0.1 M potassium phosphate buffer (pH 7.4). […] It has a final volume of 100 mL in the presence of an NADPH regeneration system. In the final incubation mixture, 0.5 mg/mL HLM, 0.1 M potassium phosphate buffer (pH 7.4), and NADPH regeneration system (1 mM NADPH, 10 mM MgCl2) were included. In the pre-incubation mixture, HLM was added, and the mixture was run in a shaking incubator at approximately 350 rpm and 37 °C for 5 min under a Thermomixer (Eppendorf, Hamburg, Germany). Reactions were initiated by the addition of 1 mM NADPH and then quenched by the addition of 40 μL of ice-cold acetonitrile containing 10 μM chlorpropamide (CPP) as an internal standard at 0 and 30 min. After quenching, centrifugation of the incubation mixture was performed at 15,000× g for 5 min at 4 °C. An aliquot of 2 µL of the supernatant was injected into the LC-MS/MS system. The LC-MS/MS system was Xcalibur version 1.1.1 (Thermo Fisher Scientific Inc., Waltham, MA, USA).

[21] = In vitro metabolic stability in liver microsomes; type: in vitro ADME, rat
[22] = % remaining after 30 min, NADPH

T1 sequence (Q9NYA1 whole entry): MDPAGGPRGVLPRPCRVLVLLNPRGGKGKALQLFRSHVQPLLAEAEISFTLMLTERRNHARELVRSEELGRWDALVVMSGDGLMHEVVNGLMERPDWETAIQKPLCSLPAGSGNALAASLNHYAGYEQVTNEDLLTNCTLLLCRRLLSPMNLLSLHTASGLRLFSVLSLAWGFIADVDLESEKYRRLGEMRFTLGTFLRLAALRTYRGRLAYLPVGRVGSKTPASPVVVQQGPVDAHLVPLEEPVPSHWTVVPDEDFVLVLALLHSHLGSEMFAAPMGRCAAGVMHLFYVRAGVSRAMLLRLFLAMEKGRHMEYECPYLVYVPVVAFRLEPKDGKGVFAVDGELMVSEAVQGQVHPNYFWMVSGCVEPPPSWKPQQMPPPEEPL

CCCCCCCOc1ccc(CCN2CCC(O)CC2)cc1 [Compound 3, 1-(4-(Heptyloxy)phenethyl)piperidin-4-ol]
SK1/2 inhibitory effect compared to RB005 (SK1) [1]: three times higher
SK1/2 inhibitory effect compared to RB005 (SK2) [2]: three times higher
cytotoxic effect (cell viability) ([3]; HCT116, 20 and 40 µM, 24 h, Figure 2B): only 40 µM concentration of compounds 3, 5 and 9 shows significant cytotoxic effect
cytotoxic effect (cell viability) ([4]; HT29, 20 and 40 µM, 24 h, Figure 2A): more cytotoxic than RB005 and 5-FU

CC1=C(CN2CC(C(=O)O)C2)CCc2cc(OCCCCc3ccccc3)ccc21 [Compound W-061]
Binding affinity, S1PR4 [5]: 65.4
Binding affinity, S1PR5 [6]: 10.5
Binding affinity, S1PR3 [7]: 1710
Binding affinity, S1PR1 [8]: 4.11
Binding affinity, S1PR2 [9]: > 43800

CCCCCCCCc1ccc(CCC(N)(CO)CO)cc1 [FTY720]
CYP2C9 activity (% of control activity) [10]: 96.8%
CYP2D6 activity (% of control activity) [11]: 92.0%
PP2A activity increase [12]: 1.65 fold
CYP2C19 activity (% of control activity) [13]: 86.8%
CYP3A4 activity (% of control activity) [14]: >100%
IC50 [15]: 5 to 12.5 µM
IC50 ([3]; Homo sapiens, HCT-116, HCT116, 48 h treatment, 2.5–40 µM, read-out: relative IC50 (cell viability)): 4.19 µM
IC50 ([4]; Homo sapiens, HT-29, HT29, 48 h treatment, 2.5–40 µM, read-out: relative IC50 (cell viability)): 4.18 µM
liver microsomal stability, Mouse (%) [16, 22]: 89.9%
liver microsomal stability (in words) ([16]; mouse): stable
IC50 [17]: 5 to 12.5 µM
apoptosis (annexin V assay) [18]: increased apoptosis
CYP1A2 activity (% of control activity) [19]: 86.5%
liver microsomal stability, Human (%) ([20]; % remaining after 30 min, 0.5 mg/mL microsomes, NADPH): 90.5%
liver microsomal stability (in words) ([20]; human): stable
liver microsomal stability, Rat (%) [21, 22]: 77.0%
liver microsomal stability (in words) ([21]; rat): stable
